Data from US20080280920A1, “Plasminogen Activator Inhibitor-1 Inhibitors” (priority 2005, published 2008).

Assays:
NCI-H23 = test: NCI anticancer screen, NCI-H23; format: cell-based, human; conditions: NCI-H23, Non-Small Cell Lung, 48 h
SK-OV-3 = test: NCI anticancer screen, SK-OV-3; format: cell-based, human; conditions: SK-OV-3, Ovarian, 48 h
DU-145 = test: NCI anticancer screen, DU-145; format: cell-based, human; conditions: DU-145, Prostate, 48 h
LOX IMVI = test: NCI anticancer screen, LOX IMVI; format: cell-based, human; conditions: Melanoma, 48 h
MDA-MB-231/ATCC = test: NCI anticancer screen, MDA-MB-231/ATCC; format: cell-based, human; conditions: Breast, 48 h
NCI-H322M = test: NCI anticancer screen, NCI-H322M; format: cell-based, human; conditions: Non-Small Cell Lung, 48 h
K-562 = test: NCI anticancer screen, K-562; format: cell-based, human; conditions: K-562, Leukemia, 48 h
A498 = test: NCI anticancer screen, A498; format: cell-based, human; conditions: A498, Renal, 48 h
SF-539 = test: NCI anticancer screen, SF-539; format: cell-based, human; conditions: SF-539, CNS, 48 h
ACHN = test: NCI anticancer screen, ACHN; format: cell-based, human; conditions: Renal, 48 h
MOLT-4 = test: NCI anticancer screen, MOLT-4; format: cell-based, human; conditions: MOLT-4, Leukemia, 48 h
SN12C = test: NCI anticancer screen, SN12C; format: cell-based, human; conditions: Renal, 48 h
MDA-MB-435 = test: NCI anticancer screen, MDA-MB-435; format: cell-based, human; conditions: MDA-MB-435, Breast, 48 h
M14 = test: NCI anticancer screen, M14; format: cell-based, human; conditions: M14, Melanoma, 48 h
HOP-92 = test: NCI anticancer screen, HOP-92; format: cell-based, human; conditions: HOP-92, Non-Small Cell Lung, 48 h
SK-MEL-28 = test: NCI anticancer screen, SK-MEL-28; format: cell-based, human; conditions: SK-MEL-28, Melanoma, 48 h
COLO 205 = test: NCI anticancer screen, COLO 205; format: cell-based, human; conditions: COLO 205, Colon, 48 h
OVCAR-8 = test: NCI anticancer screen, OVCAR-8; format: cell-based, human; conditions: OVCAR-8, Ovarian, 48 h
HCT-15 = test: NCI anticancer screen, HCT-15; format: cell-based, human; conditions: HCT-15, Colon, 48 h
T-47D = test: NCI anticancer screen, T-47D; format: cell-based, human; conditions: Breast, 48 h
PC-3 = test: NCI anticancer screen, PC-3; format: cell-based, human; conditions: PC-3, Prostate, 48 h
A549/ATCC = test: NCI anticancer screen, A549/ATCC; format: cell-based, human; conditions: Non-Small Cell Lung, 48 h
RXF 393 = test: NCI anticancer screen, RXF 393; format: cell-based, human; conditions: RXF 393, Renal, 48 h
[1] = system: 60 different human cancer cell lines; test: NCI in vitro anticancer screen (whole panel); format: cell-based
OVCAR-3 = test: NCI anticancer screen, OVCAR-3; format: cell-based, human; conditions: OVCAR-3, Ovarian, 48 h
HT29 = test: NCI anticancer screen, HT29; format: cell-based, human; conditions: HT29, Colon, 48 h
786-0 = test: NCI anticancer screen, 786-0; format: cell-based, human; conditions: 786-0, Renal, 48 h
UACC-257 = test: NCI anticancer screen, UACC-257; format: cell-based, human; conditions: UACC-257, Melanoma, 48 h
UACC-62 = test: NCI anticancer screen, UACC-62; format: cell-based, human; conditions: UACC-62, Melanoma, 48 h
OVCAR-4 = test: NCI anticancer screen, OVCAR-4; format: cell-based, human; conditions: OVCAR-4, Ovarian, 48 h
[2] = Homo sapiens, read-out: LC50 (the source's name)

In the case of `COc1cc(CNCC2CCN(C(=O)OC(C)(C)C)CC2)cc(CN2CCN(c3ccccn3)CC2)c1O` [Compound Q012132, 2-Methoxy-4-({[(N-t-butyloxycarbonylpiperidin-4-yl)methyl]amino}methyl)-6-[(4-pyridin-2-ylpiperazin-1-yl)methyl]phenol], the GI50 (NCI-H23; Homo sapiens) is reported as 29.6 µM, the CC50 (NCI-H23; [2]) is reported as over 100 µM and the TGI (NCI-H23) is reported as over 100 µM. For the same compound, the GI50 (SK-OV-3; Homo sapiens) was 29.4 µM, the CC50 (SK-OV-3; [2]) was over 100 µM and the TGI (SK-OV-3) was 98.8 µM. For the same compound, the TGI (DU-145) was over 100 µM, the GI50 (DU-145; Homo sapiens) was 38.8 µM and the CC50 (DU-145; [2]) was over 100 µM. The GI50 (LOX IMVI; Homo sapiens) was 14.1 µM, the LC50 (concentration giving 50% net cell kill) (LOX IMVI; Homo sapiens) was 55.1 µM and the TGI (LOX IMVI) was 27.9 µM. It also gave a TGI (MDA-MB-231/ATCC) of 41.0 µM, a GI50 (MDA-MB-231/ATCC; Homo sapiens) of 17.8 µM and a CC50 (MDA-MB-231/ATCC; [2]) of 94.3 µM. For the same compound, the GI50 (NCI-H322M; Homo sapiens) was 37.8 µM, the CC50 (NCI-H322M; [2]) was over 100 µM and the TGI (NCI-H322M) was over 100 µM. For the same compound, the GI50 (K-562; Homo sapiens, K562) was 5.21 µM, the CC50 (K-562; Homo sapiens, K562, read-out: LC50 (the source's name)) was 73.5 µM and the TGI (K-562) was 19.6 µM. It also gave a TGI (A498) of 36.3 µM, a GI50 (A498; Homo sapiens) of 17.8 µM and a CC50 (A498; [2]) of 74.1 µM. The GI50 (SF-539; Homo sapiens) was 14.6 µM, the CC50 (SF-539; [2]) was 54.6 µM and the TGI (SF-539) was 28.2 µM. It also gave a GI50 (ACHN; Homo sapiens) of 21 µM, a CC50 (ACHN; [2]) of over 100 µM and a TGI (ACHN) of 48.5 µM. It also gave a GI50 (MOLT-4; Homo sapiens) of 13 µM, a CC50 (MOLT-4; [2]) of over 100 µM and a TGI (MOLT-4) of 42.4 µM. The CC50 (SN12C; [2]) was over 100 µM, the TGI (SN12C) was over 100 µM and the GI50 (MDA-MB-435; Homo sapiens) was 18.2 µM. The CC50 (MDA-MB-435; [2]) was 73.1 µM, the TGI (MDA-MB-435) was 36.4 µM and the GI50 (M14; Homo sapiens) was 5.8 µM. It also gave a CC50 (M14; [2]) of 41.9 µM, a TGI (M14) of 17.5 µM and a TGI (HOP-92) of 26.6 µM. The GI50 (HOP-92; Homo sapiens) was 10.7 µM, the LC50 (concentration killing 50% of starting cells) (HOP-92; Homo sapiens) was 66.3 µM and the GI50 (SK-MEL-28; Homo sapiens) was 16.8 µM. For the same compound, the CC50 (SK-MEL-28; [2]) was 75.5 µM, the TGI (SK-MEL-28) was 35.6 µM and the TGI (COLO 205) was 34.8 µM. It also gave a GI50 (COLO 205; Homo sapiens) of 16.8 µM, a CC50 (COLO 205; [2]) of 72.1 µM and a GI50 (OVCAR-8; Homo sapiens) of 22.3 µM. For the same compound, the CC50 (OVCAR-8; [2]) was over 100 µM, the TGI (OVCAR-8) was 61.8 µM and the TGI (HCT-15) was 36.9 µM. It also gave a GI50 (HCT-15; Homo sapiens) of 16.8 µM, a CC50 (HCT-15; [2]) of 80.8 µM and a TGI (T-47D) of 44.4 µM. For the same compound, the GI50 (T-47D; Homo sapiens, T47D) was 16.2 µM, the CC50 (T-47D; Homo sapiens, T47D, read-out: LC50 (the source's name)) was over 100 µM and the GI50 (PC-3; Homo sapiens) was 21.8 µM. It also gave a CC50 (PC-3; [2]) of over 100 µM, a TGI (PC-3) of 81.1 µM and a GI50 (A549/ATCC; Homo sapiens) of 31.2 µM. It also gave an LC50 (A549/ATCC; Homo sapiens) of over 100 µM, a TGI (A549/ATCC) of over 100 µM and a GI50 (RXF 393; Homo sapiens) of 13.6 µM. For the same compound, the CC50 (RXF 393; [2]) was 67.2 µM, the TGI (RXF 393) was 30.2 µM and the “growth and proliferation of human primary cancer cell-lines (in words)” value ([1]; NCI screen, 48 h) was “inhibited growth and proliferation”. The “cytostatic / cytotoxic effects on human cancer cell-lines (in words)” value ([1]; low micromolar concentrations, leukemia, melanoma, colon and central nervous system cell-lines) was “cytostatic and cytotoxic effects”, the GI50 (OVCAR-3; Homo sapiens) was 33.1 µM and the CC50 (OVCAR-3; [2]) was over 100 µM. The TGI (OVCAR-3) was over 100 µM, the TGI (HT29) was 16.7 µM and the GI50 (HT29; Homo sapiens, HT-29) was 3.11 µM. The CC50 (HT29; Homo sapiens, HT-29, read-out: LC50 (the source's name)) was 63 µM, the TGI (786-0) was 28.2 µM and the GI50 (786-0; Homo sapiens) was 14.9 µM. It also gave a CC50 (786-0; [2]) of 53.1 µM, a GI50 (UACC-257; Homo sapiens) of 18.4 µM and a CC50 (UACC-257; [2]) of over 100 µM. For the same compound, the TGI (UACC-257) was 45.7 µM, the GI50 (UACC-62; Homo sapiens) was 17.2 µM and the CC50 (UACC-62; [2]) was 64.3 µM. It also gave a TGI (UACC-62) of 33.3 µM, a GI50 (OVCAR-4; Homo sapiens) of 47.8 µM and a CC50 (OVCAR-4; [2]) of over 100 µM. The TGI (OVCAR-4) was over 100 µM.
